Here are results for 17 compounds from patent US9296741B2, “Bromodomain inhibitors” (priority 2012, dated 2016).

Data set [1] concerns breast cancer cell line MX-1. Put plainly: MX-1 cell line proliferation assay. Format: cell-based, human. To be noted: Homo sapiens, MX1, 72 h; MX-1 cells, 3-day proliferation, Cell Titer Glo; read-out: Cellular proliferation: EC50.
Data set [2] can be described thus: Mouse liver microsome stability assay. It counts as in vitro ADME. To be noted: male, CD1, mouse, microsomes, pH 7.4.
Data set [3] has as its target human BRD4 first bromodomain (BDI_K57-E168) (Homo sapiens (Human), UniProt O60885). Put plainly: TR-FRET bromodomain binding assay, BRD4 first bromodomain. (Time-resolved FRET reads energy transfer from a long-lived donor to a nearby acceptor.)
Data set [4] in a line: Human liver microsome stability assay. Format: in vitro ADME. The settings on record: both sexes, human, microsomes, pH 7.4.
Data set [5] deals with human BRD4 second bromodomain (BDII_E352-M457) (Homo sapiens (Human), UniProt O60885). Put plainly: TR-FRET bromodomain binding assay, BRD4 second bromodomain.
Data set [6] is described as follows: Rat liver microsome stability assay. The settings on record: rat liver microsomes (male Sprague-Dawley), 0.5 μM test compound, 0.25 mg/mL microsomal protein, pH 7.4, 37° C.; read-out: Stability in rat liver microsomes (t1/2 in minutes). It counts as in vitro ADME.

pEC50, pKi: −log10 of the molar value.

A word on the pKi: it is the negative decadic logarithm of the Ki, by convention in mol/L. As to `Cn1cc(-c2cc(S(C)(=O)=O)ccc2OC2C3CC4CC(C3)CC2C4)c2cc[nH]c2c1=O` (stereo not drawn) [Example 237, 6-methyl-4-{5-(methylsulfonyl)-2-[tricyclo[3.3.1.1^3,7]dec-2-yloxy]phenyl}-1,6-dihydro-7H-pyrrolo[2,3-c]pyridin-7-one], the pEC50 in data set [1] is 7.46. In addition, the half-life at 0.5 μM in data set [2] came out at 2 min; in data set [4] it was 3 min; in data set [6], 7 min. Also, the pKi in data set [3] is 8.52; in data set [5], 8.46.

For the compound `Cn1cc(-c2cc(C(=O)NC3CCOC3)ccc2Oc2ccc(F)cc2F)c2cc[nH]c2c1=O` (stereo not drawn) [Example 51, 4-(2,4-difluorophenoxy)-3-(6-methyl-7-oxo-6,7-dihydro-1H-pyrrolo[2,3-c]pyridin-4-yl)-N-(tetrahydrofuran-3-yl)benzamide], in data set [1], the pEC50 was 7.00. The half-life at 0.5 μM in data set [2] was greater than 120 min; in data set [4], 6 min; in data set [6], 63 min. Further, the results for the pKi in data set [3] and in data set [5] were 8.01 and 7.79, respectively.

With `Cn1cc(-c2cc(CNC(=O)CCC(=O)O)ccc2Oc2ccccc2)c2cc[nH]c2c1=O` [Example 42, 4-{[3-(6-methyl-7-oxo-6,7-dihydro-1H-pyrrolo[2,3-c]pyridin-4-yl)-4-phenoxybenzyl]amino}-4-oxobutanoic acid], the pEC50 in data set [1] is less than 5.52. Moreover, the half-life at 0.5 μM in data set [2], in data set [4] and in data set [6] was greater than 120 min in each case. Moreover, the pKi is 7.26 in data set [3] and 7.03 in data set [5].

Regarding `Cn1cc(-c2cc(NS(C)(=O)=O)ccc2Oc2ccccc2)c2cc(C(N)=O)[nH]c2c1=O` [Example 73, 6-methyl-4-{5-[(methylsulfonyl)amino]-2-phenoxyphenyl}-7-oxo-6,7-dihydro-1H-pyrrolo[2,3-c]pyridine-2-carboxamide], the pEC50 in data set [1] is 7.68. In addition, the half-life at 0.5 μM in data set [2] came out at 31 min; in data set [4], 36 min; in data set [6], 2 min. The pKi in data set [3] was 9.01; in data set [5], 9.30.

On to `Cn1cc(-c2cc(S(C)(=O)=O)ccc2Oc2ccc(F)cc2F)c2cc(C(=O)NCC(F)(F)F)[nH]c2c1=O` [Example 254, 4-[2-(2,4-difluorophenoxy)-5-(methylsulfonyl)phenyl]-6-methyl-7-oxo-N-(2,2,2-trifluoroethyl)-6,7-dihydro-1H-pyrrolo[2,3-c]pyridine-2-carboxamide], for which, in data set [1], the pEC50 was 7.12. For the same compound, the results for the half-life at 0.5 μM in data set [2], in data set [4] and in data set [6] were 91 min, 74 min and greater than 120 min, respectively. Also, the figures for the pKi in data set [3] and in data set [5] were 7.10 and 8.06, respectively.

Consider `CCS(=O)(=O)Nc1ccc(Oc2ccc(F)cc2F)c(-c2cn(C)c(=O)c3[nH]c(CN4CCN(C)CC4)cc23)c1` [Example 339, N-[4-(2,4-difluorophenoxy)-3-{6-methyl-2-[(4-methylpiperazin-1-yl)methyl]-7-oxo-6,7-dihydro-1H-pyrrolo[2,3-c]pyridin-4-yl}phenyl]ethanesulfonamide], for which the pEC50 in data set [1] was 7.11. The half-life at 0.5 μM in data set [2] came to 67 min; in data set [4], 100 min; in data set [6] it was 76 min. The pKi is 9.10 in data set [3] and 7.50 in data set [5].

On to `Cn1cc(-c2cc(S(=O)(=O)N3CCCC3)ccc2OCC2CC2(F)F)c2cc[nH]c2c1=O` (stereo not drawn) [Example 307, 4-{2-[(2,2-difluorocyclopropyl)methoxy]-5-(pyrrolidin-1-ylsulfonyl)phenyl}-6-methyl-1,6-dihydro-7H-pyrrolo[2,3-c]pyridin-7-one], for which the pEC50 in data set [1] was 6.91. Further, the half-life at 0.5 μM came out at 2 min in data set [2], 3 min in data set [4] and 3 min in data set [6]. The results for the pKi in data set [3] and in data set [5] were 8.62 and 8.54, respectively.

As to `CCS(=O)(=O)N(CCC(F)(F)F)c1ccc(Oc2ccc(F)cc2F)c(-c2cn(C)c(=O)c3[nH]ccc23)c1` [Example 346, N-[4-(2,4-difluorophenoxy)-3-(6-methyl-7-oxo-6,7-dihydro-1H-pyrrolo[2,3-c]pyridin-4-yl)phenyl]-N-(3,3,3-trifluoropropyl)ethanesulfonamide], the pEC50 in data set [1] was 6.67. Moreover, the figures for the half-life at 0.5 μM in data set [2], in data set [4] and in data set [6] were 2 min, 4 min and 5 min, respectively. In addition, the pKi in data set [3] was 7.02; in data set [5] it was 7.80.

Turning to `CCS(=O)(=O)N1CCN(C(=O)c2ccc(Oc3ccc(F)cc3F)c(-c3cn(C)c(=O)c4[nH]ccc34)c2)CC1` [Example 137, 4-[2-(2,4-difluorophenoxy)-5-{[4-(ethylsulfonyl)piperazin-1-yl]carbonyl}phenyl]-6-methyl-1,6-dihydro-7H-pyrrolo[2,3-c]pyridin-7-one], the pEC50 in data set [1] is 6.52. Further, the half-life at 0.5 μM came to 10 min in data set [2], 38 min in data set [4] and 31 min in data set [6]. The results for the pKi in data set [3] and in data set [5] were 7.16 and 8.05, respectively.

On to `CCS(=O)(=O)N(CC1CCCO1)c1ccc(Oc2ccc(F)cc2F)c(-c2cn(C)c(=O)c3[nH]ccc23)c1` (stereo not drawn) [Example 345, N-[4-(2,4-difluorophenoxy)-3-(6-methyl-7-oxo-6,7-dihydro-1H-pyrrolo[2,3-c]pyridin-4-yl)phenyl]-N-(tetrahydrofuran-2-ylmethyl)ethanesulfonamide], for which, in data set [1], the pEC50 is 6.32. The half-life at 0.5 μM was 2 min in data set [2], 2 min in data set [4] and 4 min in data set [6]. For the same compound, the results for the pKi in data set [3] and in data set [5] were 6.89 and 7.49, respectively.

Regarding `Cn1cc(-c2cc(S(N)(=O)=O)cnc2Nc2ccccc2)c2cc[nH]c2c1=O` [Example 111, 5-(6-methyl-7-oxo-6,7-dihydro-1H-pyrrolo[2,3-c]pyridin-4-yl)-6-(phenylamino)pyridine-3-sulfonamide], the pEC50 in data set [1] was 6.70. The half-life at 0.5 μM in data set [2] is 63 min; in data set [4], greater than 120 min; in data set [6], 42 min. Further, the figures for the pKi in data set [3] and in data set [5] were 8.06 and 7.99, respectively.

As for `Cn1cc(-c2cc(S(C)(=O)=O)ccc2OCC2CCOC2)c2cc[nH]c2c1=O` (stereo not drawn) [Example 217, 6-methyl-4-[5-(methylsulfonyl)-2-(tetrahydrofuran-3-ylmethoxy)phenyl]-1,6-dihydro-7H-pyrrolo[2,3-c]pyridin-7-one], in data set [1], the pEC50 is 7.47. The half-life at 0.5 μM in data set [2] came to 68 min; in data set [4], 70 min; in data set [6], 101 min. In addition, the pKi in data set [3] was 8.48; in data set [5] it was 8.09.

As for `CCS(=O)(=O)Nc1ccc(OC2CCCOC2)c(-c2cn(C)c(=O)c3[nH]ccc23)c1` (stereo not drawn) [Example 105, N-[3-(6-methyl-7-oxo-6,7-dihydro-1H-pyrrolo[2,3-c]pyridin-4-yl)-4-(tetrahydro-2H-pyran-3-yloxy)phenyl]ethanesulfonamide], the pEC50 in data set [1] is 7.80. The figures for the half-life at 0.5 μM in data set [2], in data set [4] and in data set [6] were 7 min, greater than 120 min and 13 min, respectively. In addition, the pKi was 9.28 in data set [3] and 8.82 in data set [5].

Take `Cn1cc(-c2cc(S(N)(=O)=O)cnc2NCC2CC2)c2cc[nH]c2c1=O` [Example 209, 6-[(cyclopropylmethyl)amino]-5-(6-methyl-7-oxo-6,7-dihydro-1H-pyrrolo[2,3-c]pyridin-4-yl)pyridine-3-sulfonamide]: in data set [1], the pEC50 was 7.43. Moreover, the half-life at 0.5 μM in data set [2] was 116 min; in data set [4], greater than 120 min; in data set [6] it was 105 min. In addition, the pKi is 8.34 in data set [3] and 8.44 in data set [5].

With `COC(=O)c1cc2c(-c3ccccc3Oc3ccccc3)cn(C)c(=O)c2[nH]1` [Example 67, methyl 6-methyl-7-oxo-4-(2-phenoxyphenyl)-6,7-dihydro-1H-pyrrolo[2,3-c]pyridine-2-carboxylate], the pEC50 in data set [1] was 6.47. In addition, the half-life at 0.5 μM in data set [2] was 6 min; in data set [4] it was 6 min; in data set [6] it was 5 min. The figures for the pKi in data set [3] and in data set [5] were 7.25 and 7.03, respectively.

Turning to `Cc1ccc(S(=O)(=O)n2ccc3c(-c4cc(NS(C)(=O)=O)ccc4Oc4ccccc4)cn(C)c(=O)c32)cc1` [Example 7, N-(3-{6-methyl-1-[(4-methylphenyl)sulfonyl]-7-oxo-6,7-dihydro-1H-pyrrolo[2,3-c]pyridin-4-yl}-4-phenoxyphenyl)methanesulfonamide], the pEC50 in data set [1] was less than 5.52. Moreover, the half-life at 0.5 μM in data set [2] was found to be 4 min; in data set [4], 12 min; in data set [6] it was 2 min. Moreover, the pKi was 6.92 in data set [3] and 7.11 in data set [5].

As to `Cn1cc(-c2cc(S(C)(=O)=O)ccc2OCC2CCCCC2)c2cc[nH]c2c1=O` [Example 224, 4-[2-(cyclohexylmethoxy)-5-(methylsulfonyl)phenyl]-6-methyl-1,6-dihydro-7H-pyrrolo[2,3-c]pyridin-7-one], in data set [1], the pEC50 is 8.12. For the same compound, the half-life at 0.5 μM in data set [2] was found to be 5 min; in data set [4], 6 min; in data set [6], 8 min. The pKi was 8.16 in data set [3] and 8.15 in data set [5].
